Reference: US20060194815A1, “Methods and compositions for modulating serum cortisol levels” (priority 2003, published 2006)
Entries after “also recorded” stand apart in the source; their conditions may differ.

Columns and labels:
cytochrome P-450SCC = target: T1, cytochrome P-450SCC (Mus musculus, UniProt Q9QZ82); assay: 22R-hydroxycholesterol-induced 20-OH progesterone formation (P-450SCC activity) in Y1 cells; assay type: cell-based
T1 construct: endogenous in cells; host or cells: Y1 mouse adrenal tumor cells
T1 sequence (Q9QZ82 37-526): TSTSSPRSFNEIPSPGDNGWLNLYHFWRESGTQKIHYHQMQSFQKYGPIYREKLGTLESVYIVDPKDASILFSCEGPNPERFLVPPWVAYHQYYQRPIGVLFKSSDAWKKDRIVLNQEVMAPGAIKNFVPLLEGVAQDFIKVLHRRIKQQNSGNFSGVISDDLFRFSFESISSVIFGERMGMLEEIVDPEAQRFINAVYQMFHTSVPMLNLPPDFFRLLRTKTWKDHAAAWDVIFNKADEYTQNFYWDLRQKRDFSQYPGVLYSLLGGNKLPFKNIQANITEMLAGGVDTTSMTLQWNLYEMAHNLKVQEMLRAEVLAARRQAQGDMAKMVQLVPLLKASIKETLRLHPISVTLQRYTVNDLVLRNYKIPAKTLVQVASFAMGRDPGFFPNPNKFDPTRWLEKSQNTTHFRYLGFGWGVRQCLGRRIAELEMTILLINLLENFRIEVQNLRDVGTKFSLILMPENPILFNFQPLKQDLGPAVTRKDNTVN
Protocol: (§1) Culture media were then changed and cells were stimulated with 1 mM dbcAMP and the treatment for 24 to 48 hours. […] The synthesis of 20-OH progesterone and progesterone in Y1 and MA-10 cell media respectively were measured by RIA (Brown et al., 1992). H295R human adrenal tumor cells were seeded in 48-well plates at 10^5 cells/well and incubated for 24 hours. […] At the end of the incubation time period, cells were treated with 1 mM dbcAMP for 48 hours. Cortisol levels in the media were determined by radioimmunoassay as previously described (Amri et al., 1996).

[1] = tested on: MA-10 mouse Leydig tumor cells; assay: dbcAMP-induced progesterone synthesis in MA-10 cells (RIA); assay type: cell-based
Protocol: as §1

[2] = tested on: Y1 mouse adrenal tumor cells; assay: dbcAMP-induced 20á-hydroxyprogesterone synthesis in Y1 cells (RIA); assay type: cell-based
Protocol: as §1

[3] = tested on: peripheral-type benzodiazepine receptor (PBR); assay: PBR radioligand binding assay ([3H]PK 11195) in procaine-treated cells; conditions: 1 μM procaine, 48 hour treatment
Protocol: Radioligand binding assays were performed as previously described (Papadopoulos et al., 1990, J. Biol. Chem. 265, 3772-3779). In brief, cells were scrapped from culture flasks into PBS, dispersed by trituration, and centrifuged at 1200×g for 5 min. The cells were resuspended in PBS to a final concentration of 10-50 μg protein/100 μl. Saturation binding studies were performed in a final volume of 300 μl in the presence of the radioligand [^3H]PK 11195 (specific activity 83.5 Ci/mmol; NEN Life Science Products) at the indicated concentrations. Nonspecific binding was determined in the presence of 6 μM of the homologous non-radioactive ligand. After 180 min incubation at 4° C., the assays were stopped by filtration through Whatman GF/C filters (Clifton, N.J.) and washed with 10 ml PBS. Bound radioactivity was determined by liquid scintillation counting. Bound [^3H]PK 11195 and [^3H]cholesterol were quantified by liquid scintillation spectrometry. Dissociation constants (Kd), the number of binding sites (Bmax) and Hill coefficients (nH) for PK 11195 and cholesterol were determined by Curve-Fit (Prism version 3.0, GraphPad Software Inc., San Diego, Calif.).

P-450SCC enzyme = assay: Immunoblot of P-450SCC enzyme expression in Y1 cells; assay type: cell-based, mouse; conditions: Y1 cell extracts
Protocol: At the end of the treatment protocol described above, Y1 cells at 90% confluency were washed 2 times with PBS, sonicated 15 seconds in extraction buffer and centrifuged at 18,500 g for 15 minutes at 4° C. Pellets were resuspended in ice-cold lysis buffer (1% Nonidet 40 in extraction buffer), sonicated briefly, and incubated on ice for 1 hour. After centrifugation (22,500 g×30 min, 4° C.), the supernatant was mixed in sample buffer 6× (0.27 M SDS, 0.6 M dithiothreitol, 0.18 M bromphenol blue in 7 ml of 0.5 M Tris-HCl, pH 6.8, and 3 ml glycerol) and boiled for 5 minutes. Proteins were subjected to SDS-PAGE (4-20% gradient SDS polyacrylamide gel) and electrophoretically transferred onto nitrocellulose membranes. The transblot sheets were blocked with 5% non fat dry milk in 25 mM Tris HCl, pH 7.5, 150 mM NaCl, and 0.1% Tween 20 overnight at 4° C. Membranes were then incubated with appropriately diluted primary antibodies 1:800 for anti-P-450SCC (Research Diagnostics Inc. Flanders, N.J.) and 1:200 for anti-StAR (Amri et al., 1996), and the reaction was detected by a peroxidase-conjugated secondary antibody (Santa Cruz Biotechnology, Santa Cruz, Calif.) and enhanced chemiluminescence (Amersham Life, Arlington Heights, Ill.). The densities of the appropriate bands were determined using the OptiQuant Acquisition & Analysis software (Packard BioScience).

[4] = tested on: H295R human adrenal tumor cells; assay: MTT cell viability / mitochondrial function, H295R cells; assay type: cell-based; conditions: H295R cells exposed to dbcAMP
Protocol: Cell viability at the end of the incubation protocol described above was assessed using the mitochondrial integrity 3-(4,5-dimethylthiazol-2-yl)-2,5-diphenyl tetrazolium bromide (MTT) assay (Trevigen, Gaithersburg, Md.). Briefly, 10 l of the MTT solution were added to the cells in 100 l medium. After an incubation period of 4 hours, 100 l of detergent were added and cells were incubated overnight at 37° C. Formazan blue formation was quantified at 600 nm and 690 nm using the Victor quantitative detection spectrophotometer (EGG-Wallac, Gaithersburg, Md.) and the results expressed as (OD600-OD690).

HMG-CoA reductase mRNA = HMG-CoA reductase mRNA expression by Q-PCR in UT-1 cells; assay type: cell-based, Chinese hamster; conditions: dbcAMP induced
Protocol: After treatment, cells were stimulated with 1 mM dbcAMP for 24 hours. At the end of the incubation, total cell RNA was extracted using. RNA STAT-60 (Tel-Test Inc, Friendswood, Tex.) according to the manufacturer's instructions. HMG-CoA reductase mRNA was quantified by Q-PCR using the ABI Prism 7700 sequence detection system (Perlin-Elmer/Applied Biosystems, Foster City, Calif.). RT reaction was performed using TaqMan® Reverse Transcription Reagents with 1 g total RNA and random hexamers as primers for each reaction according to the manufacturer's instructions. For quantifying mouse HMG-CoA reductase mRNA with Q-PCR, the primers were designed according to GenBank Accession Number BC 019782 using PE/AB Primer Express software, which is specifically designed for the selection of primers and probes. The forward primer was 5′-[…]-3′ (22 nucleotides) and reverse primer was 5′-[…]-3′ (23 nucleotides), respectively. The primers were synthesized by Bio-Synthesis Inc. (Lewisville, Tex.). Reactions were performed in a reaction mixture consisting of a 20 l volume solution containing 10 l SYBR® Green PCR Master Mix and 1 l primers mix (5 M each) with 2 l cDNA.

## CCN(CC)CCOC(=O)c1ccc(N)cc1 [procaine]
Cytochrome P-450SCC
  effect of 22R-hydroxycholesterol on steroidogenesis: did not inhibit; also recorded: did not affect
[1]
  dbcAMP-induced progesterone synthesis: did not affect
[2]; Y1 cells, 1 mM dbcAMP, increasing concentrations
  dbcAMP-induced 20á-hydroxyprogesterone production: decreased in a dose-dependent manner
[2]; no dbcAMP stimulus
  basal steroid formation by Y1 cells: without affecting
[3]
  ligand binding characteristics / expression of PBR: did not affect
[3]; control 1.8 nM, Kd of the radioligand, not of procaine
  PBR Kd of [3H]PK 11195 in procaine-treated cells: 1.7 nM
[3]; control 27±3
  PBR Bmax ([3H]PK 11195) in procaine-treated cells: 29±4 pmol/mg protein
[3]; listed as Procaine
  ligand binding characteristics / expression of PBR: had no effect
P-450SCC enzyme
  expression of the P-450SCC enzyme (immunoblot): did not modify
[4]
  dbcAMP-induced change of mitochondrial function (MTT): reversed the effect of dbcAMP on mitochondrial function
[4]; listed as Procaine
  dbcAMP-induced change of mitochondrial function (MTT): protected against the dbc-AMP-induced change of mitochondrial function
HMG-CoA reductase mRNA
  inhibition of HMG-CoA reductase mRNA expression: minor and not significant
